Reference: patent US8580802B2, “Pyrrolo[2,3-D]pyrimidines as inhibitors of Janus kinases” (Vertex Pharmaceuticals Incorporated, priority 2005, dated 2013)
Counter-ions that a name gives are not always drawn.

Key:
JAK2 = JAK2 (Homo sapiens, UniProt O60674); test: JAK2 Inhibition Assay; assay type: biochemical; conditions: JAK-2 enzyme, 15 μM poly(Glu)4Tyr, 12 μM ATP
Protocol: (§1) Compounds were screened for their ability to inhibit JAK3 using the assay shown below. Reactions were carried out in a kinase buffer containing 100 mM HEPES (pH 7.4), 1 mM DTT, 10 mM MgCl2, 25 mM NaCl, and 0.01% BSA. Substrate concentrations in the assay were 5 μM ATP (200 uCi/μmole ATP) and 1 μM poly(Glu)4Tyr. Reactions were carried out 25° C. and 1 nM JAK3.
(§2) To each well of a 96 well polycarbonate plate was added 1.5 μl of a candidate JAK3 inhibitor along with 50 μl of kinase buffer containing 2 μM poly(Glu)4Tyr and 10 μM ATP. This was then mixed and 50 μl of kinase buffer containing 2 nM JAK3 enzyme was added to start the reaction. After 20 minutes at room temperature (25° C.), the reaction was stopped with 50 μl of 20% trichloroacetic acid (TCA) that also contained 0.4 mM ATP. The entire contents of each well were then transferred to a 96 well glass fiber filter plate using a TomTek Cell Harvester. After washing, 60 μl of scintillation fluid was added and ^33P incorporation detected on a Perkin Elmer TopCount.
The assays were as described above in Example 36 except that JAK-2 enzyme was used, the final poly(Glu)4Tyr concentration was 15 μM, and final ATP concentration was 12 μM.

JAK3 = target: T1, JAK3 (Homo sapiens, UniProt P52333); test: JAK3 Inhibition Assay; assay type: biochemical; conditions: 1 nM JAK3, 1 μM poly(Glu)4Tyr, 5 μM ATP, 25° C.; read-out: enzyme inhibition data (Ki) JAK3
T1 sequence (P52333 1-1124): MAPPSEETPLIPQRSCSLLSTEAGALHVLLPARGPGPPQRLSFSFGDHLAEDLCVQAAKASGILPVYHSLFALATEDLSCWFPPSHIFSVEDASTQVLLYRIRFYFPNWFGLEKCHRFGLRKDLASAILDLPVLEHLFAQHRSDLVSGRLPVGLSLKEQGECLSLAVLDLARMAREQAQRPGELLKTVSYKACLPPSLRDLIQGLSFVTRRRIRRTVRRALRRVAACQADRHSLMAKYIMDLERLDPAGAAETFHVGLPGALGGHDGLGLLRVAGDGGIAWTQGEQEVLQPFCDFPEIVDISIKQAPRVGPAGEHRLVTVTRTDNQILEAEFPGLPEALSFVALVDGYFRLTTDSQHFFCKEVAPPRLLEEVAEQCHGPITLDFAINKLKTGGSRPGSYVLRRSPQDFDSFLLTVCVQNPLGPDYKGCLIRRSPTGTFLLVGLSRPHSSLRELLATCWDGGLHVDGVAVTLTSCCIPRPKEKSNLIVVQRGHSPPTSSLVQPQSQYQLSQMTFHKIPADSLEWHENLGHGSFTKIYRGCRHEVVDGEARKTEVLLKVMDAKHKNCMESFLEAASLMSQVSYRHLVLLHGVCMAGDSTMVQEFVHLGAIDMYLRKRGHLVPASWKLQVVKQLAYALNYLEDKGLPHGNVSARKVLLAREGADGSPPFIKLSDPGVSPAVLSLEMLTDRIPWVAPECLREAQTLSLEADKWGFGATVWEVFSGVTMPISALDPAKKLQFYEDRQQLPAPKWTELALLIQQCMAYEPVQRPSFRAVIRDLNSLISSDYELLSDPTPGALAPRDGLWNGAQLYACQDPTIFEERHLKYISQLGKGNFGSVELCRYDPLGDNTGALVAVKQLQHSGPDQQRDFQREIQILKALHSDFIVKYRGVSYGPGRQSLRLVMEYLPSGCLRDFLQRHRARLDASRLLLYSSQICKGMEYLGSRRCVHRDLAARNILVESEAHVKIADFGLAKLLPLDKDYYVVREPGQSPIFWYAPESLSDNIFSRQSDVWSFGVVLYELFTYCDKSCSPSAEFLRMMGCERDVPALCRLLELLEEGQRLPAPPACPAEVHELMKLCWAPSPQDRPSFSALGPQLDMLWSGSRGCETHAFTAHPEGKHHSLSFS
Protocol: as §1, §2

Sequence of JAK2 (O60674 whole entry): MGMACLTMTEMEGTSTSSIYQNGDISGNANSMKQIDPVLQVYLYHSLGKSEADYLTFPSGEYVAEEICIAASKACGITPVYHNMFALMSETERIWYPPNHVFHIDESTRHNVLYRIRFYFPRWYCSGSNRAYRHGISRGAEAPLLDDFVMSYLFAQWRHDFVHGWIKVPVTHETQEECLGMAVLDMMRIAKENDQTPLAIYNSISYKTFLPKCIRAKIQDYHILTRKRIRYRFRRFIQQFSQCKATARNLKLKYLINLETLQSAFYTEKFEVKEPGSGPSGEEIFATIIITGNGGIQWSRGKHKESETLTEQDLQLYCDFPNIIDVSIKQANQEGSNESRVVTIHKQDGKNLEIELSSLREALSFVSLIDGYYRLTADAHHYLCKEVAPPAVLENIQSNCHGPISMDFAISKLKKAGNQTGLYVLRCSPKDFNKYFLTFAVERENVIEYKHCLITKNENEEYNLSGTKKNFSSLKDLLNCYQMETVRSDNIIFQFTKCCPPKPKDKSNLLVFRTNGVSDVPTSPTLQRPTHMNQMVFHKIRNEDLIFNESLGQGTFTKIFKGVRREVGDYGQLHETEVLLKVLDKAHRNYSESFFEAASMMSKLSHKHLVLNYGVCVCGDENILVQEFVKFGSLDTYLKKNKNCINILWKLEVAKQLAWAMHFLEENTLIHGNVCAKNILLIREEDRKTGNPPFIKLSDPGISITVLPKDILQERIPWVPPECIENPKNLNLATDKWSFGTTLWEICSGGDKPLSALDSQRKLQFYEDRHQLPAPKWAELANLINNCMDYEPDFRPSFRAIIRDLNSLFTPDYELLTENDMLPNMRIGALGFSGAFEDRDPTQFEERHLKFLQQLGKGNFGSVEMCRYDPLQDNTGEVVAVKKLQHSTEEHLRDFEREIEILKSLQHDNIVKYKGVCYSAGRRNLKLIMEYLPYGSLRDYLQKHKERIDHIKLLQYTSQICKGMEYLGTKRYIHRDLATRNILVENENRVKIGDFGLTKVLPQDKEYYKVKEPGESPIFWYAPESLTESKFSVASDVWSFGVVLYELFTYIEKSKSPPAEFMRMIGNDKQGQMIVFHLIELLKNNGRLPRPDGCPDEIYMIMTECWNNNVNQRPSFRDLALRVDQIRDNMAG

SMILES	Ki (JAK2) [nM]	Ki (JAK3) [nM]
O=C(NCC(F)(F)F)[C@@H]1CCCCN1c1ccnc(-c2c[nH]c3ncncc23)n1 [Compound 61]	500 to 5000	< 500
CC(C)[C@H](C(=O)NCC(F)(F)F)N(C)c1ccnc(-c2c[nH]c3ncncc23)n1 [Compound 73]	< 500	< 500
C[C@H](Nc1cc(C(=O)N2CCOCC2)nc(-c2c[nH]c3ncncc23)n1)C(=O)NCC(F)(F)F [Compound 12]	500 to 5000	< 500
CN(c1ccnc(-c2c[nH]c3ncncc23)n1)C(C(=O)NCC(F)(F)F)c1ccccc1 (centres unmarked) [Compound 97]	500 to 5000	< 500
C[C@H](Nc1cccc(-c2c[nH]c3ncncc23)n1)C(=O)NCC(F)(F)F [Compound 4, (S)-2-(6-(7H-pyrrolo[2,3-d]pyrimidin-5-yl)pyridin-2-ylamino)-N-(2,2,2-trifluoroethyl)propanamide]	< 500	< 500
C[C@H](Nc1cc(C(=O)N2CCCC2)nc(-c2c[nH]c3ncncc23)n1)C(=O)NCC(F)(F)F [Compound 9]	500 to 5000	< 500
C[C@H](Nc1cc(C(=O)N(C)Cc2ccccc2)nc(-c2c[nH]c3ncncc23)n1)C(=O)NCC(F)(F)F [Compound 17]	500 to 5000	500 to 5000
C[C@H](Nc1cc(N2CCOCC2)nc(-c2c[nH]c3ncncc23)n1)C(=O)NCC(F)(F)F [Compound 36, (S)-2-(6-morpholino-2-(7H-pyrrolo[2,3-d]pyrimidin-5-yl)pyrimidin-4-ylamino)-N-(2,2,2-trifluoroethyl)propanamide]	> 5000	> 5000
CCOC(=O)c1cc(N[C@@H](C)C(=O)NCC(F)(F)F)nc(-c2c[nH]c3ncncc23)n1 [Compound 2]	> 5000	500 to 5000
C1=C(c2cccc(-c3c[nH]c4ncncc34)n2)CCNC1 [Compound 29, 6-(7H-Pyrrolo[2,3-d]pyrimidin-5-yl)-1′,2′,3′,6′-tetrahydro-[2,4′]bipyridinyl hydrochloride]	500 to 5000	500 to 5000
C[C@H](Nc1nc(-c2c[nH]c3ncncc23)cc(N2CCOCC2)n1)C(=O)NCC(F)(F)F [Compound 35]	> 5000	500 to 5000
O=C(NCC(F)(F)F)C1COCCN1c1cnc(-c2c[nH]c3ncncc23)nc1 (centres unmarked) [Compound 60]	500 to 5000	< 500
C[C@H](Nc1cc(N2CCCC2)nc(-c2c[nH]c3ncncc23)n1)C(=O)NCC(F)(F)F [Compound 32, (S)-2-(6-(pyrrolidin-1-yl)-2-(7H-pyrrolo[2,3-d]pyrimidin-5-yl)pyrimidin-4-ylamino)-N-(2,2,2-trifluoroethyl)propanamide]	> 5000	> 5000
CCC(CC)(Nc1ccnc(-c2c[nH]c3ncncc23)n1)C(=O)NCC(F)(F)F [Compound 90]	< 500	< 500
CC(=O)N1[C@H](C)CN(c2cccc(-c3c[nH]c4ncncc34)n2)C[C@@H]1C [Compound 1, 1-((2S,6R)-4-(6-(7H-pyrrolo[2,3-d]pyrimidin-5-yl)pyridin-2-yl)-2,6-dimethylpiperazin-1-yl)ethanone]	< 500	< 500
O=C(NCC(F)(F)F)[C@H]1CCCCN1c1cnc(-c2c[nH]c3ncncc23)nc1 [Compound 54]	< 500	< 500
C[C@@H](Nc1nc(-c2c[nH]c3ncncc23)nc2ccccc12)C(=O)NCC(F)(F)F [Compound 38]	< 500	< 500

The next lines start with the values.

Ki (JAK2) [nM]	Ki (JAK3) [nM]	SMILES
< 500	< 500	C[C@@H](Nc1nc(-c2c[nH]c3ncncc23)ncc1F)C(=O)NCC(F)(F)F [Compound 40, (R)-2-(5-fluoro-2-(7H-pyrrolo[2,3-d]pyrimidin-5-yl)pyrimidin-4-ylamino)-N-(2,2,2-trifluoroethyl)propanamide]
< 500	< 500	CCC(CC)(Nc1nc(-c2c[nH]c3ncncc23)ncc1F)C(=O)NCC(F)(F)F [Compound 89]
< 500	< 500	C[C@H](Nc1ccnc(-c2c[nH]c3ncncc23)n1)c1ccc(F)cc1 [Compound 84]
> 5000	> 5000	O=C(NCC(F)(F)F)C1CN(c2nc(-c3c[nH]c4ncncc34)ncc2F)C1 [Compound 95]
> 5000	500 to 5000	O=C(NCC(F)(F)F)[C@@H]1C[C@@H](F)CN1c1nc(-c2c[nH]c3ncncc23)ncc1F [Compound 53]
< 500	< 500	CC(C)[C@H](C(=O)NCC(F)(F)F)n1ccc2cnc(-c3c[nH]c4ncncc34)nc21 [Compound 110, (R)-2-(2-(7H-pyrrolo[2,3-d]pyrimidin-5-yl)-7H-pyrrolo[2,3-d]pyrimidin-7-yl)-N-(2,2,2-trifluoroethyl)-3-methylbutanamide]
< 500	< 500	O=C(CCNc1ccnc(-c2c[nH]c3ncncc23)n1)NCC(F)(F)F [Compound 82]
< 500	< 500	CC[C@@H](C(=O)NCC(F)(F)F)n1cnc2cnc(-c3c[nH]c4ncncc34)nc21 [Compound 113]
> 5000	500 to 5000	Nc1nc(-c2c[nH]c3ncncc23)ncc1F [Compound 49]
< 500	< 500	CC[C@@H](Nc1ncnc(-c2c[nH]c3ncncc23)n1)C(=O)NCC(F)(F)F [Compound 91]
< 500	< 500	O=C(NCC(F)(F)F)[C@H]1CCCN1c1ccnc(-c2c[nH]c3ncncc23)n1 [Compound 72]
< 500	< 500	CC(C)[C@H](C(=O)NCC(F)(F)F)N(C)c1nc(-c2c[nH]c3ncncc23)ncc1F [Compound 74]
< 500	< 500	CC(C)(Nc1nc(-c2c[nH]c3ncncc23)ncc1F)C(=O)NCC(F)(F)F [Compound 56, 2-(5-fluoro-2-(7H-pyrrolo[2,3-d]pyrimidin-5-yl)pyrimidin-4-ylamino)-N-(2,2,2-trifluoroethyl)-2-methylpropanamide]
< 500	< 500	C[C@@H](Nc1ccnc(-c2c[nH]c3ncncc23)n1)c1ccc(F)cc1 [Compound 83]
< 500	< 500	CC(C)[C@@](C)(Nc1ccnc(-c2c[nH]c3ncncc23)n1)C(=O)NCC(F)(F)F [Compound 87]
500 to 5000	< 500	CN(c1nc(-c2c[nH]c3ncncc23)ncc1F)C1(C(=O)NCC(F)(F)F)CC1 [Compound 99]
500 to 5000	< 500	C[C@@H](c1ccccc1)N(C)c1ccnc(-c2c[nH]c3ncncc23)n1 [Compound 86]
< 500	< 500	CC(C)(Nc1ccnc(-c2c[nH]c3ncncc23)n1)C(=O)NCC(F)(F)F [Compound 63]
500 to 5000	< 500	C[C@H](Nc1ncnc(-c2c[nH]c3ncncc23)n1)C(=O)NCC(F)(F)F [Compound 79, (S)-2-(4-(7H-pyrrolo[2,3-d]pyrimidin-5-yl)-1,3,5-triazin-2-ylamino)-N-(2,2,2-trifluoroethyl)propanamide]
< 500	< 500	O=C(NCC(F)(F)F)[C@H]1CCCN1c1nc(-c2c[nH]c3ncncc23)ncc1F [Compound 27]
< 500	< 500	CC[C@@H](C(=O)NCC(F)(F)F)n1ccc2cnc(-c3c[nH]c4ncncc34)nc21 [Compound 112]
500 to 5000	500 to 5000	O=C(NCC(F)(F)F)[C@@H]1C[C@H](F)CN1c1nc(-c2c[nH]c3ncncc23)ncc1F [Compound 52]
< 500	< 500	C[C@H](c1ccccc1)N(C)c1ccnc(-c2c[nH]c3ncncc23)n1 [Compound 85]
